Source: paper PMC6359675, “Functionalization of the Chalcone Scaffold for the Discovery of Novel Lead Compounds Targeting Fungal Infections” (Molecules, 2019)
Several values for one entry are separate records, joined by “and”; a condition that tells them apart may be missing. Equal values may be shown once. Read-outs that look alike come from different tables or passages of the source.

Legend:
C. krusei = assay: In vitro susceptibility testing, C. krusei clinical isolate; assay type: cell-based; conditions: Pichia kudriavzevii; clinical isolate; read-out: IC50 C. krusei
Description: (§1) The yeasts included in the present study were Candida albicans ATCC 10231 (American Type Culture Collection) and a collection of yeasts recovered from a variety of clinical specimens, i.e., blood, urine, genital swabs, bronchoalveolar lavage, nail specimens, collected at the Microbiology Unit, St. Orsola Malpighi University Hospital, Bologna, Italy. The clinical strain isolates were identified by standard procedures, including colony morphology on chromogenic agar (CHROMagar Candida medium, Becton Dickinson, Heidelberg, Germany) and confirmed by MALDI Biotyper System using matrix-assisted laser desorption ionization–time of flight mass spectrometry (MALDI-TOF MS, Bruker Daltonik, GmbH, Germany).
(§2) The in vitro antifungal activity of the chalcones was evaluated by a microdilution broth method in accordance with the guidelines provided by the EUCAST Edef 7.3 [22]. Briefly, all strains were cultured on Sabauraud dextrose, then inocula, prepared at 0.5 McFarland, were diluted 1:20 in RPMI-1640 medium (Gibco®, ThermoFisher Scientific Inc., Waltham, MA, USA), containing glucose 2%, 0.3% levo-glutamine buffered to pH 7.0 with 0.165 M 3-(N-morpholino)propanesulfonic acid (MOPS) to yield 1-5 × 10^5 cells/mL. A total of 100 µL of the yeast suspension was inoculated in a 96-well microplate and incubated with 100 µL of serially 2-fold dilution of the compound in the range 200–6.25 µM. The following controls were included: yeast suspensions incubated in RPMI-1640 culture medium (positive growth control), or supplemented with dilutions of DMSO, or fluconazole (Sigma-Aldrich, St. Louis, MO, USA) as a commercial drug. To check the background turbidity of reagents and the sterility of the procedure, dilutions of each compound were incubated in RPMI-1640 culture medium, without yeast inoculum. The inoculated plate was incubated at 37 °C for 24 h, and subsequently the optical density at 630 nm was measured by the Multiskan Ascent microplate reader (Thermo Fisher Scientific Inc.). The effectiveness of the compounds was expressed as percent inhibition relative to the positive growth control when the inhibition […] the 50% at 100 µM. The IC50 value was determined by interpolation of the dose–response curves generated by plotting the percentages of growth inhibition, relative to the drug-free control (set to 100% of growth), as a function of the tested concentrations (on a logarithm scale). Statistical analysis was carried out by the nonlinear regression method using GraphPad Prism version 5.0 for Windows (GraphPad Software, San Diego, CA, USA). All assays were performed in triplicate and at least two independent experiments were carried out.

C. lusitaniae = assay: In vitro susceptibility testing, C. lusitaniae clinical isolate; assay type: cell-based; conditions: Clavispora lusitaniae; clinical isolate; read-out: IC50 C. lusitaniae
Description: as §1, §2

C. tropicalis = assay: In vitro susceptibility testing, C. tropicalis clinical isolate; assay type: cell-based; conditions: Candida tropicalis; clinical isolate; read-out: IC50 C. tropicalis
Description: as §1, §2

C. neoformans = assay: In vitro susceptibility testing, C. neoformans clinical isolate; assay type: cell-based; conditions: Cryptococcus neoformans; clinical isolate; read-out: IC50 C. neoformans
Description: as §1, §2

C. utilis = assay: In vitro susceptibility testing, C. utilis clinical isolate; assay type: cell-based; conditions: Williopsis jadinii; clinical isolate; read-out: IC50 C. utilis
Description: as §1, §2

S. clavata = assay: In vitro susceptibility testing, S. clavata clinical isolate; assay type: cell-based; conditions: clinical isolate; read-out: IC50 S. clavata
Description: as §1, §2

[1] = Cytotoxicity test on Vero cells (WST8/CCK-8 cell viability); assay type: cell-based, African green monkey; conditions: African green monkey, Vero cells (ATCC CCL-81), Vero cells, mean and 95% confidence interval
Description: (§3) African green monkey kidney cells (Vero ATCC CCL-81) were cultured in Eagle’s Minimal Essential Medium (MEM) (Sigma-Aldrich), supplemented with 10% fetal bovine serum (FBS) (Carlo Erba Reagents, Milan, Italy), 100 U/mL penicillin, and 100 µg/mL streptomycin at 37 °C with 5% CO2. For experiments, cells were seeded into 96-well plates at 10^4 cells/well, and incubated at 37 °C for 24 h. Following washes with PBS, cell monolayer was incubated with 100 µL of serially 2-fold dilution of the compound in the range 200–6.25 µM. Both untreated cells and cells incubated with medium containing solvent dilutions were included in each experiment as controls.
(§4) The cell viability was assessed by a WST8-based assay according to the manufacturer’s instructions (CCK-8, Cell Counting Kit-8, Dojindo Molecular Technologies, Rockville, MD, USA). After 72 h of incubation, culture medium was removed from each well, the monolayer was washed with PBS, and 100 µL of fresh medium containing 10 µL of CCK-8 solution were added. Following a 2 h at 37 °C, the absorbance was measured at 450/630 nm; data were calculated as the percentage of the cell viability relative to the untreated controls.

C. glabrata = assay: In vitro susceptibility testing, C. glabrata clinical isolate; assay type: cell-based; conditions: Nakaseomyces glabratus; clinical isolate; read-out: IC50 C. glabrata
Description: as §1, §2

C. parapsilosis = assay: In vitro susceptibility testing, C. parapsilosis clinical isolate; assay type: cell-based; conditions: Lodderomyces parapsilosis; clinical isolate; read-out: IC50 C. parapsilosis
Description: as §1, §2

C. albicans = assay: In vitro susceptibility testing, C. albicans clinical isolate; assay type: cell-based; conditions: Candida albicans; clinical isolate; mean and 95% confidence interval; read-out: IC50 C. albicans
Description: as §1, §2

C. albicans ATCC 10231 = assay: In vitro susceptibility testing, microdilution broth (EUCAST), C. albicans control strain; assay type: cell-based, Candida albicans; conditions: for IC50 / inhibition at 100 µM: Candida albicans; for IC50: ATCC10231, C. albicans ATCC 10231, mean and 95% confidence interval; for inhibition at 100 µM: ATCC10231, 24 h; for inhibition at 100 µM / antifungal activity against C. albicans growth, in words: C. albicans ATCC 10231; for antifungal activity against C. albicans growth, in words: screen at 100 μM
Description: as §2

R. mucilaginosa = assay: In vitro susceptibility testing, R. mucilaginosa clinical isolate; assay type: cell-based; conditions: clinical isolate; read-out: IC50 R. mucilaginosa
Description: as §1, §2

Vero cells (ATCC CCL-81) = assay: Cytotoxicity test on Vero cells (WST8/CCK-8 cell viability); assay type: cell-based, African green monkey; conditions: 72 h, up to the highest concentration of 200 μM
Description: as §3, §4

| Structure (SMILES) | IC50 (C. krusei) | IC50 (C. lusitaniae) | IC50 (C. tropicalis) | IC50 (C. neoformans) | IC50 (C. utilis) | IC50 (S. clavata) | IC50 (C. glabrata) | IC50 (C. parapsilosis) | IC50 (C. albicans) | IC50 (C. albicans ATCC 10231; read-out: IC50) | IC50 (C. albicans ATCC 10231; read-out: IC50 [μg/mL]) | IC50 (R. mucilaginosa) | melting point | CC50 at 72 h ([1]; read-out: CC50) | CC50 at 72 h ([1]; read-out: CC50 [μg/mL]) | inhibition at 100 µM (C. albicans ATCC 10231) | toxicity on Vero cells, in words (Vero cells (ATCC CCL-81)) | antifungal activity against C. albicans growth, in words (C. albicans ATCC 10231) |
| --- | --- | --- | --- | --- | --- | --- | --- | --- | --- | --- | --- | --- | --- | --- | --- | --- | --- | --- |
| O=C(/C=C/c1ccccc1)c1cc(Cl)ccc1O [Compound 1, (E)-1-(5-Chloro-2-hydroxyphenyl)-3-phenylprop-2-en-1-one] | 200 µM and 51.7 µg/mL | 100 µM and 25.9 µg/mL | 200 µM and 51.7 µg/mL | 26.4 µM and 6.8 µg/mL | 84.5 µM and 21.9 µg/mL | 200 µM and 51.7 µg/mL | 200 µM and 51.7 µg/mL | 200 µM and 51.7 µg/mL | 62.9 µM and 16.3 µg/mL | 52.8 µM | 13.7 µg/mL | 83.7 µM and 21.7 µg/mL |  | 174 µM | 45 µg/mL | 65.2 ± 3.9% |  |  |
| O=C(/C=C/c1cccc(F)c1)c1cc(Cl)ccc1O [Compound 3, (E)-1-(5-Chloro-2-hydroxyphenyl)-3-(3-fluorophenyl)prop-2-en-1-one] | > 200 µM and > 55.3 µg/mL | 38.5 µM and 10.7 µg/mL | > 200 µM and > 55.3 µg/mL | 35.2 µM and 9.7 µg/mL | 100 µM and 27.7 µg/mL | 37.2 µM and 10.3 µg/mL | > 200 µM and > 55.3 µg/mL | 41.5 µM and 11.5 µg/mL | 100 µM and 27.7 µg/mL | 57.7 µM | 16 µg/mL | > 200 µM and > 55.3 µg/mL |  | 152 µM | 42 µg/mL | 64.8 ± 1.5% |  |  |
| CC(C)=CCOc1ccc(C(=O)/C=C/c2cccnc2)c(O)c1 [Compound 20] |  |  |  |  |  |  |  |  |  | 16.8 µM | 4.9 µg/mL |  |  | 54.3 µM | 15.9 µg/mL | 81.5 ± 4.7% | moderately toxic |  |
| OC(Cn1cncn1)(Cn1cncn1)c1ccc(F)cc1F [FLC, fluconazole, reference compound] | 64.6 µM and 19.8 µg/mL | 50 nM and 0.015 µg/mL | 0.4 µM | 256 µM and 78.4 µg/mL | 1.56 µM and 0.5 µg/mL | 40 nM and 0.012 µg/mL | 14.4 µM and 4.4 µg/mL | 37 nM and 0.01 µg/mL | 420 nM and 0.13 µg/mL | 0.25 µM | 0.07 µg/mL | 1.6 mM and 491 µg/mL |  |  |  |  |  |  |

The next lines start with results.

| IC50 (C. krusei) | IC50 (C. lusitaniae) | IC50 (C. tropicalis) | IC50 (C. neoformans) | IC50 (C. utilis) | IC50 (S. clavata) | IC50 (C. glabrata) | IC50 (C. parapsilosis) | IC50 (C. albicans) | IC50 (C. albicans ATCC 10231; read-out: IC50) | IC50 (C. albicans ATCC 10231; read-out: IC50 [μg/mL]) | IC50 (R. mucilaginosa) | melting point | Structure (SMILES) | CC50 at 72 h ([1]; read-out: CC50) | CC50 at 72 h ([1]; read-out: CC50 [μg/mL]) | inhibition at 100 µM (C. albicans ATCC 10231) | toxicity on Vero cells, in words (Vero cells (ATCC CCL-81)) | antifungal activity against C. albicans growth, in words (C. albicans ATCC 10231) |
| --- | --- | --- | --- | --- | --- | --- | --- | --- | --- | --- | --- | --- | --- | --- | --- | --- | --- | --- |
| 200 µM and 55.3 µg/mL | 34.6 µM and 9.6 µg/mL | 200 µM and 55.3 µg/mL | 27.1 µM and 7.5 µg/mL | 96.7 µM and 26.8 µg/mL | 200 µM and 55.3 µg/mL | 200 µM and 55.3 µg/mL | > 200 µM and > 55.3 µg/mL | 69.6 µM and 19.3 µg/mL | 48.9 µM | 13.5 µg/mL | 81.8 µM and 22.6 µg/mL |  | O=C(/C=C/c1ccc(F)cc1)c1cc(Cl)ccc1O [Compound 4, (E)-1-(5-Chloro-2-hydroxyphenyl)-3-(4-fluorophenyl)prop-2-en-1-one] | > 200 µM | > 55.3 µg/mL | 65.6 ± 3.3% | did not display any toxicity |  |
| 200 µM and 67.5 µg/mL | 48.8 µM and 14.8 µg/mL | 200 µM and 67.5 µg/mL | 28.4 µM and 9.6 µg/mL | 33.7 µM and 11.4 µg/mL | 100 µM and 33.7 µg/mL | 200 µM and 67.5 µg/mL | 100 µM and 33.7 µg/mL | 31.4 µM and 10.6 µg/mL | 39.2 µM | 11.5 µg/mL | 100 µM and 33.7 µg/mL |  | C#CCOc1ccc(C(=O)/C=C/c2ccc([N+](=O)[O-])cc2)c(OC)c1 [Compound 14] | > 200 µM | > 58.6 µg/mL | 63.6 ± 6.8% | did not display any toxicity |  |
|  |  |  |  |  |  |  |  |  |  |  |  | 100 to 102 °C | CC(C)=CCOc1ccc(C(=O)/C=C/c2ccc([N+](=O)[O-])cc2)cc1 [Compound 34, (E)-1-(4-((3-methylbut-2-en-1-yl)oxy)phenyl)-3-(4-nitrophenyl)prop-2-en-1-one] |  |  | 37.9 ± 5.2% |  | inactive |
|  |  |  |  |  |  |  |  |  |  |  |  | 96 to 98 °C | C#CCOc1ccc(C(=O)/C=C/c2cccnc2)cc1 [Compound 36, (E)-1-(4-(prop-2-yn-1-yloxy)phenyl)-3-(pyridin-3-yl)prop-2-en-1-one] |  |  | < 1% |  | devoid of any effect |
|  |  |  |  |  |  |  |  |  |  |  |  | 99 to 101 °C | C#CCOc1ccc(C(=O)/C=C/c2ccncc2)cc1 [Compound 37, (E)-1-(4-(prop-2-yn-1-yloxy)phenyl)-3-(pyridin-4-yl)prop-2-en-1-one] |  |  | < 1% |  | devoid of any effect |
|  |  |  |  |  |  |  |  |  |  |  |  | 103 to 105 °C | C#CCOc1ccc(C(=O)/C=C/c2ccc([N+](=O)[O-])cc2)cc1 [Compound 38, (E)-3-(4-nitrophenyl)-1-(4-(prop-2-yn-1-yloxy)phenyl)prop-2-en-1-one] |  |  | 46.3 ± 3.7% |  | inactive |
